Data on 6 compounds can be found in US20060094660A1, “Inhibitor of the shh signalling patway and a testosterone supressing agent for the treatment of cancer” (priority 2002, published 2006).

Where “and” joins values, the source holds several entries; their conditions need not be identical. Equal values may be shown once. Read-outs that look alike come from different tables or passages of the source.

The subject of one series is UGS explants. As to conditions: for prostatic buds: 7 days.
Series [1] relates to ventral prostate (VP). As to the kind of experiment: Organ culture of P0 rat VPs: peripheral epithelial bud tips per unit perimeter. The series is classed as cell-based. Particulars: for mean bud tips per unit perimeter: six days; for mean bud tips per 1000 pixels perimeter: 3 days. An excerpt: We chose to analyse the effect of Cy on the prostatic epithelia of VPs grown in vitro. Epithelial bud tips situated at the periphery of VPs (total of 60 VPs from each of four treatment groups and 16 independent experiments) were counted and expressed as a ratio to organ perimeter, to account for the changes in organ size after treatments (FIG. 5C). The addition of Cy to organs cultured −T caused a significant increase in the number of peripheral tips per unit perimeter (−T=60.16±/−0.97 mean bud tips per unit perimeter versus −T +Cy=74.47+/−1.07; Student's t-test, P=1.31 e^−17). […] It is possible that the number of tips induced by T or Cy were the maximum for the in vitro system, thus additive effects may not be apparent due to the limitations of the system. […] An increase in peripheral tip number was also observed in VPs cultured with anti-SHH antibody (5E1) in the absence of T (−T=62.13+/−0.82 versus −T+5E1=93.03+/−1.08), with a similar peripheral tip number being observed between VPs cultured +T and +T+5E1 (+T=74.32+/−0.69 versus +T+5E1=79.21+/−1.28).
The number of peripheral bud tips from the cultured VPs was counted and expressed as a ratio to perimeter (FIG. 10C).

For series [2], the system named is ventral prostate (VP). As to the kind of experiment: Organ culture of P0 rat VPs: BrdU incorporation, mitotic/proliferative index. The series is classed as cell-based. As to conditions: for % proliferative nuclei, mesenchyme: day 2; for % proliferative nuclei, epithelium: day 3. Here is the method: (§1) Anti-CK14 antibody was diluted at 1:100, and anti-p63 antibody (Santa Cruz Biotechnologies Inc., USA) was diluted at 1:500. […] Mitotic indices were calculated by counting the number of pan-cytokeratin-positive epithelial cells that were also BrdU-positive.
[…] […] The percentage of proliferating cells was scored from three images of the peripheral tips of the organs (distal), and three images of the ducts closest to the urethra (proximal), totalling 27 distal and proximal counts for each treatment group.
The proliferative index of the epithelial and mesenchymal cell compartments was calculated for VPs cultured −/+T and −/+SHH after the addition of BrdU (FIG. 10D).

The subject of series [3] is ventral prostate (VP). As to the kind of experiment: Organ culture of P0 rat VPs: histology (Masson's trichrome) and p63/CK14 immunohistochemistry. It counts as cell-based. As to conditions: six days. As to the method: as §1
Prostatic ducts grow initially as solid cords, which then canalise, resulting in ducts that contain lumens. […] Normal prostatic ducts in rats consist of luminal secretory cells with underlying basal cells, forming a single lumen.

Series [4] concerns ventral prostate (VP). Here is the method: Serum-free organ culture of P0 Wistar rat VPs was performed as previously described (Sugimura et al., 1996). […] The two-dimensional area and perimeter of organs was measured from live captured images using NIH Image software.
P0 VPs were grown in vitro for five days in the presence (+) or absence (−) of T and with (+) or without (−) 100 μg ml^−1 anti-SHH antibody (5E1) (FIG. 4A), after which their two-dimensional area was measured (FIG. 4B).
Effect of exogenous SHH on VP growth and branching. The effects of adding recombinant SHH to VPs grown in vitro was examined (FIG. 10). VPs were grown for 3 days −/+T and −/+recombinant SHH protein (n=6).

The test system of series [5] is Ptc transcripts. Nature of the series: RNase protection assay, female URs cultured three days. As to conditions: three days −/+T (10^−8 M). The series is classed as cell-based, rat. An excerpt:
(§2) DNA templates for Shh and Ptc riboprobes were synthesised by RT-PCR from P0 UGT cDNA and subcloned into pBluescript KSII+ (Stratagene, USA). PCR primers were designed using GenBank-published cDNA sequences (Shh: GenBank Accession No. NM_017221; Primers: L—[…] (SEQ ID No 1), R—[…] (SEQ ID No 2); Ptc: GenBank Accession No. AF079162; Primers L—[…] (SEQ ID No 3), R—[…] (SEQ ID No 4)). DNA templates for Cyclophilin (Cphn) and 28S riboprobes were from Ambion, Inc., USA. ^32P-labelled anti-sense riboprobes were transcribed, and RNase protection assays performed as previously described in detail (Thomson et al., 1997). RNase protected products from Shh, Ptc, Cphn and 28S riboprobes were 269 nucleotides (nt), 322 nt, 103 nt and 155 nt respectively. Gels were imaged using a Storm phosphorimager (Molecular Dynamics, USA) and transcript abundance was determined from the intensities of bands, calculated using ImageQuant V.1.2 (Molecular Dynamics, USA).
(§3) RPAs were performed to analyse Shh and Ptc transcripts levels in VPs and URs grown in vitro. VPs were cultured for six days in the presence or absence of T; or for five days with T followed by a one-day treatment with the AR antagonist cyproterone acetate (FIG. 3B). […] Similarly, in short-term cultures of VPs (seven hours or three days), no changes in transcript levels were observed (data not shown).

In series [6] the test system is Shh transcripts. Described as above. The series is classed as cell-based, rat. Particulars: three days −/+T (10^−8 M).
Source text: as §2, §3

The subject of series [7] is Ptc transcripts. As to the kind of experiment: RNase protection assay, VPs grown in vitro. As to conditions: six days −/+T; or five days T then one day cyproterone acetate. It counts as cell-based, rat.
Source text: as §2, §3

For series [8], the system named is Shh transcripts. As to the kind of experiment: RNase protection assay, VPs grown in vitro. The series is classed as cell-based, rat. Particulars: six days −/+T; or five days T then one day cyproterone acetate.
Source text: as §2, §3

For series [9], the system named is Shh transcripts. Particulars: explants cultured for three days; cited from earlier work.
In series [10] the target is SONIC HEDGEHOG (SHH) protein, endogenous in cultured P0 Wistar rat ventral prostate (rat) (UniProt Q63673). Nature of the series: cell-based or functional assay.
Sequence of SONIC HEDGEHOG (SHH) protein, endogenous in cultured P0 Wistar rat ventral prostate (rat) (Q63673 25-198 limits assumed): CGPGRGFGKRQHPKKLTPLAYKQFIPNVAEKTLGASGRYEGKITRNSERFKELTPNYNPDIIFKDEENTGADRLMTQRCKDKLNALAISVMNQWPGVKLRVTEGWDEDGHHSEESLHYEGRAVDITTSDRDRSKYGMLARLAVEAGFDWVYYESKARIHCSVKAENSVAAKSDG

Protocol for UGS explants: As the prostate was not well developed in either mutant (FIG. 9B) or wildtype males at this stage, UGS explants from both Shh null mice and their littermates were grown in vitro to determine if prostatic budding could be induced (n=3).

For the compound `CC1=C2C[C@H]3[C@@H](CC=C4C[C@@H](O)CC[C@@]43C)[C@@H]2CC[C@]12O[C@@H]1C[C@H](C)CN[C@H]1[C@H]2C` [Cy, cyclopamine], the toxicity to explants entry with UGS explants (5 μM Cy) is “toxic and caused premature organ death”. Further, the toxicity to explants result in the series on UGS explants (10 μM Cy) was “toxic and caused premature organ death”. Moreover, the prostatic buds result in the series with UGS explants (+T +5 μM Cy) was “present”. Besides, the prostatic buds result in the series on UGS explants (+T +10 μM Cy) is “present”. Further, in the series with ventral prostate (VP) [1] (+T +Cy), the “mean bud tips per unit perimeter” value is listed as 69.84+/−1.13 bud tips per unit perimeter. Besides, in the series with ventral prostate (VP) [1] (−T +Cy), the “mean bud tips per unit perimeter” value was 74.47+/−1.07 bud tips per unit perimeter. In addition, in the series on ventral prostate (VP) [2], the “mitotic nuclei in distal epithelial tips” value was 13.48%+/−0.93% and 16.28%+/−0.74%. Moreover, in the series on ventral prostate (VP) [3] (+T +Cy), the CK14 expression entry is “very few CK14-positive cells in distal tips”, the “canalisation (lumens) of prostatic ducts” value is on record as “exhibited lumens in distal tips” and the p63 expression result was “confined to the basal cell layer of all distal tips”. In addition, the “appearance of epithelial tips” value with ventral prostate (VP) [3] (−T +Cy) was “did not alter the appearance of epithelial tips”. Besides, in the series with ventral prostate (VP) [4], the “effect on VP cultures” value is on record as “little or no effect”, the “optimum concentration for growth inhibition” value was 1 µM and the “toxicity to VP organ cultures (organs dying prematurely)” value is “toxic”.

On to `C[C@]12CC[C@H]3[C@@H](CCC4=CC(=O)CC[C@@]43C)[C@@H]1CC[C@@H]2O` [T, testosterone], for which the “change in Ptc transcript levels” value with Ptc transcripts [5] is “no significant change”. The “upregulation of Shh transcripts” value in the series with Shh transcripts [6] is “two-and-a-half-fold”. Also, the Ptc transcript abundance result with Ptc transcripts [7] was “No significant difference”. Moreover, the Shh transcript abundance result with Shh transcripts [8] is “No significant difference”. Besides, the prostatic buds result in the series with UGS explants (+T) is “present”. Besides, the peripheral tip number in the series with ventral prostate (VP) [1] (+T alone (5E1 experiments)) is recorded as 74.32+/−0.69. The “mean bud tips per unit perimeter” value in the series with ventral prostate (VP) [1] (+T alone (Cy experiments)) is 71.80+/−0.83 bud tips per unit perimeter. For the same compound, the “mean bud tips per 1000 pixels perimeter” value in the series on ventral prostate (VP) [1] (+T alone (SHH experiments)) is listed as 83.92+/−2.25 bud tips per 1000 pixels perimeter. Moreover, the “mitotic nuclei in distal epithelial tips” value in the series with ventral prostate (VP) [2] (+T alone (Cy experiments), day six) stood at 23.24%+/−1.86%. In the series with ventral prostate (VP) [2] (+T alone (SHH experiments)), the “% proliferative nuclei, mesenchyme” value turned out to be 17.81%+/−1.22% and the “% proliferative nuclei, epithelium” value was found to be 32.54%+/−1.65%. Besides, the “proliferation in proximal ducts” value in the series with ventral prostate (VP) [2] (response to T) is “reduced”. The “% area (2D area relative to −T)” value in the series with ventral prostate (VP) [4] (+T alone (SHH experiments), 3 days) is listed as 127.05+/−5.12%.

Turning to `CC(=O)O[C@]1(C(C)=O)CC[C@H]2[C@@H]3C=C(Cl)C4=CC(=O)[C@@H]5C[C@@H]5[C@]4(C)[C@H]3CC[C@@]21C` [cyproterone acetate], the Ptc transcript abundance result in the series with Ptc transcripts [7] is on record as “No significant difference”. For the same compound, the Shh transcript abundance result in the series on Shh transcripts [8] is on record as “No significant difference”.

With `C[C@]12CCC(=O)C[C@@H]1CC[C@@H]1[C@@H]2CC[C@]2(C)[C@@H](O)CC[C@@H]12` [dihydrotestosterone], the “increase in Shh transcripts” value with Shh transcripts [9] was “five-fold”.

In the case of “SHH: recombinant SHH protein (Research Diagnostics, USA)”, the “mean bud tips per 1000 pixels perimeter” value is listed as 68.34+/−2.57 bud tips per 1000 pixels perimeter in the series with ventral prostate (VP) [1] (+T +SHH) and 48.0+/−3.35 bud tips per 1000 pixels perimeter with ventral prostate (VP) [1] (−T +SHH). The “% proliferative nuclei, mesenchyme” value with ventral prostate (VP) [2] (+T+SHH) was 20.47%+/−1.07%; in the series with ventral prostate (VP) [2] (−T+SHH), 19.45%+/−1.12%. Also, the “% proliferative nuclei, epithelium” value was found to be 30.46%+/−1.72% with ventral prostate (VP) [2] (+T+SHH) and 18.62%+/−2.06% with ventral prostate (VP) [2] (−T +SHH). Besides, the “reduction of epithelial cell proliferation” value in the series on ventral prostate (VP) [2] (VPs grown +T, not statistically significant) is 6%; in the series with ventral prostate (VP) [2] (VPs grown −T), “a third”. Also, the “% area (2D area relative to −T)” value with ventral prostate (VP) [4] (+T +SHH, 3 days) is reported as 123.03+/−6.75%. In the series with ventral prostate (VP) [4] (recombinant SHH, 3 days, both −/+T), the “effect on mesenchyme of cultured VPs” value is recorded as “expansion of the mesenchyme around the periphery of VPs”.

As to “anti-SHH antibody (clone 5E1, Developmental Studies Hybridoma Bank, University of Iowa)”, in series [10], the decrease in growth of P0 rat ventral prostate in vitro (two-dimensional area, five days of culture, 100 ug/ml antibody) was found to be 20% and the decrease in testosterone-induced growth of rat ventral prostates in vitro turned out to be 50%.
